In patent US6743436B1, “Anesthetic composition for intravenous injection comprising propofol” (Kuhnil Pharm. Co., Ltd., priority 1999, dated 2004):

Assays:
[1] = system: albino rat; assay: Experiment 7: hemolysis after intravenous injection; type: in vivo; details: for Af (absorbance of released hemoglobin at 540 nm) / Hemolysis: i.v. over one minute, arterial blood
Procedure: To determine the hemolysis of the formulation of Example 6, albino rat was incised with scissor at the upper part of left femoral region, at which each of vein and artery was cannulated, and then 10 mg/kg of the formulated drug was intravenously injected over one minute. After 0, 5, 10, 15, 30, 45 and 60 minutes, blood was collected from femoral artery in an amount of 100 μl each time. Blood was obtained after heparin-physiological saline and some blood filled in the catheter were removed few, seconds before collecting blood each time. After blood was collected, a small amount of heparin-physiological saline was introduced into the catheter connecting tube to prevent blood coagulation. 100 μl of the collected blood were mixed with 500 μl of physiological saline and then centrifuged with 3000 rpm for 10 minutes. 100 μl of the supernatant were transferred into microplate and the absorbance of released hemoglobin was measured at 540 nm. Hemolysis (%) was calculated according to the following equation. The control group used 70% propylene glycol (PG) solution.
In the above equation, A100 is the absorbance at the time of 100% hemolysis (100 μl of blood was mixed with 500 μl of water); A0 is the absorbance at the time of 0% hemolysis as the blank (Before injection of the drug, normal blood was mixed with 500 μl of physiological saline for the blank test), and Af is the absorbance of each specimen.

[2] = background statement; cited from earlier work

| Structure (SMILES) | Af (absorbance of released hemoglobin at 540 nm) ([1]; 5 min.) | Hemolysis ([1]; 5 min.) [%] | Af (absorbance of released hemoglobin at 540 nm) ([1]; 10 min.) | Hemolysis ([1]; 10 min.) [%] | Af (absorbance of released hemoglobin at 540 nm) ([1]; 15 min.) | Hemolysis ([1]; 15 min.) [%] | Af (absorbance of released hemoglobin at 540 nm) ([1]; 30 min.) | Hemolysis ([1]; 30 min.) [%] | Af (absorbance of released hemoglobin at 540 nm) ([1]; 45 min.) | Hemolysis ([1]; 45 min.) [%] | Af (absorbance of released hemoglobin at 540 nm) ([1]; 60 min.) | Hemolysis ([1]; 60 min.) [%] | Af (absorbance of released hemoglobin at 540 nm) ([1]; initial) | Hemolysis ([1]; initial) [%] | absorbance relative to the formulation of Example 6 ([1]; i.v., 0-60 min) | hemolysis (in words) ([1]; i.v., 0-60 min) | octanol water partition coefficient [2] | pKa [2] |
| --- | --- | --- | --- | --- | --- | --- | --- | --- | --- | --- | --- | --- | --- | --- | --- | --- | --- | --- |
| CC(O)CO (stereo not drawn) [70% PG, propylene glycol] | 0.086 | 1.94 | 0.091 | 2.06 | 0.067 | 1.47 | 0.038 | 0.76 | 0.047 | 0.98 | 0.041 | 0.84 | 0.081 | 1.82 | 80-90 times | causes hemolysis |  |  |
| CC(C)c1cccc(C(C)C)c1O [propofol, 2,6-diisopropylphenol] |  |  |  |  |  |  |  |  |  |  |  |  |  |  |  |  | 4.33 | 10.4 |
